# Measured values taken from patent publication US12521409B2, “Cognition” (priority 2023, dated 2026).
# “Also recorded” adds a separate entry of the source.
# Assays:
# TG2576 mice [1] = experiment: Morris water maze, spatial memory in TG2576 mice (Example 3B); assay type: in vivo, mouse; conditions: TAG diet
# Description: The Morris water maze (MWM) has been used to measure spatial memory deficit in TG2576 mice. Mice are placed in a tub of water and containing a submerged platform. The amount of time required for a mouse to swim to the platform is referred to as the maze “escape time”. There are two testing stages in the water maze: 1. VISIBLE STAGE, in which the position of the platform is made visible by a marker pole attached to the platform, and 2. HIDDEN STAGE where the marker pole is removed and the water made opaque by the addition of white paint. Compared to wild type siblings, older TG2576 mice show increased latency to escape time.
# The maze consisted of a 715 mm diameter tub filled to a depth of 70 mm. For VISIBLE STAGE testing, mice were placed in the water maze and the time they took to reach the platform was recorded with a stop watch. This testing was carried out 8 times per day for 3 days, during which the platform was moved to various positions around the maze. The walls of the maze were inscribed with 4 distinct shapes that were provided as spatial cues for learning. The HIDDEN STAGE testing was carried out for 7 days, 4 times per day. The position of the platform was fixed, but mice were placed in the maze at different positions for each test.
# […].
# As subjects learned to navigate and find the hidden platform, their escape time was reduced. […]
# TG2576 mice [2] = experiment: UDP N-acetyl glucosamine in brain tissue of TG2576 mice on TAG-supplemented diet, LC-MS/MS (Example 2B); assay type: in vivo, mouse
# Experimental: After 6 weeks brains were excised and bisected in the sagittal plane. The hemi-brains were stored frozen (−80° C.) then thawed, weighed and homogenized in 10 volumes of MeOH/MeCN/H2O (50%/30%/20%, v/v/v). Homogenates were centrifuged at 5000 rpm for 30 min. The supernatant was passed through 1 kDa MW centrifugal filters then evaporated and resuspended in the HPLC mobile phase. UDP N-acetyl glucosamine was run on a mixed-mode hydrophilic HPLC column (150 mm×4.6 mm id, Primesep N, by SIELC), with guard under a linear gradient of 80% acetonitrile and 10 mM ammonium formate pH 4.3 to 10% MeCN and 10 mM ammonium formate over 9 min, then return to starting conditions over 1 min. UDP N-acetyl glucosamine in brain extracts was quantified against commercial standard UDP N-acetyl glucosamine detected by mass spectrometry (MS-MS) in negative ion mode, scanning for m/z 606 and identification of major collision fragments m/z 385 and 403. UDP levels were corrected for brain mass. The effect of diet was calculated using 1-tailed t-test.
# TG2576 mice [3] = experiment: Plasma glutamate and glutamine by LC-MS in TG2576 mice on TAG-supplemented diet (Example 1B); conditions: mouse, in vivo
substance,measurement,setting,value
tetra-acetyl glucosamine [TAG],Effect on latency to escape time / spatial working memory in Morris water maze (in words),TG2576 mice [1]; after 7 days,decreased; also recorded: significantly improved
same,Mean escape time ± SE,"TG2576 mice [1]; water maze after 7 days, n = 8, in s (unit assumed)",9.31 ± 0.80
same,UDP N-acetyl glucosamine in brain,"TG2576 mice [2]; TG2576 mice, 0.45% (w/w) TAG diet for 6 weeks, n = 5, p=0.037 vs control diet",28.3 ± 2.13 ng/mg brain fwt
same,Increase in levels of UDP N-acetyl glucosamine in brain vs control diet,"TG2576 mice [2]; TG2576 mice, 6 weeks of TAG-supplemented diet",40%
same,UDP N-acetyl glucosamine in brain tissue compared to control (in words),TG2576 mice [2]; mice models of AD fed a diet supplemented with TAG,increased
same,Plasma concentration of glutamate,TG2576 mice [3],1.05 ± 0.094 RU/ml
same,Plasma concentration of glutamine,TG2576 mice [3],6.77 ± 1.05 RU/ml
same,Plasma glutamate level compared to control mice (in words),TG2576 mice [3],significantly lower; also recorded: reduced
same,Plasma glutamine level compared to control mice (in words),TG2576 mice [3],trend of increased
